Results on four compounds are retold here after ChEMBL document CHEMBL1201862, “PubChem BioAssay data set” (2004).

SMILES strings stand for the structures. Activity calls are given as the source filed them. Cut-off read from the data, not from the text of the source, for most assays here: actives have a measured IC50 and inactives only a lower limit.

For test [1], the system named is NIH3T3. The test can be described thus: mammalian cell toxicity, NIH-3T3 fibroblasts, dose response, cytotoxicity control for reversing antifungal drug resistance, Alamar Blue, dry powder, set 3 (AID 488933). As to conditions: Mus musculus. The class given is functional, cell-based. For orientation: The colour change of resazurin is a common sign of viable cells or microbes.

Test [2] deals with INS1. The test can be described thus: caspase-3/7 inhibition in cytokine-treated INS-1E, dose response, beta-cell apoptosis inhibitor project, cell-based, caspase luminescence, dry powder (AID 488848). The class given is functional. The conditions noted are these: Rattus norvegicus.
Test [3] concerns the target T1, Hexokinase HKDC1 (Homo sapiens, UniProt Q2TB90).
T1 sequence (Q2TB90 whole entry): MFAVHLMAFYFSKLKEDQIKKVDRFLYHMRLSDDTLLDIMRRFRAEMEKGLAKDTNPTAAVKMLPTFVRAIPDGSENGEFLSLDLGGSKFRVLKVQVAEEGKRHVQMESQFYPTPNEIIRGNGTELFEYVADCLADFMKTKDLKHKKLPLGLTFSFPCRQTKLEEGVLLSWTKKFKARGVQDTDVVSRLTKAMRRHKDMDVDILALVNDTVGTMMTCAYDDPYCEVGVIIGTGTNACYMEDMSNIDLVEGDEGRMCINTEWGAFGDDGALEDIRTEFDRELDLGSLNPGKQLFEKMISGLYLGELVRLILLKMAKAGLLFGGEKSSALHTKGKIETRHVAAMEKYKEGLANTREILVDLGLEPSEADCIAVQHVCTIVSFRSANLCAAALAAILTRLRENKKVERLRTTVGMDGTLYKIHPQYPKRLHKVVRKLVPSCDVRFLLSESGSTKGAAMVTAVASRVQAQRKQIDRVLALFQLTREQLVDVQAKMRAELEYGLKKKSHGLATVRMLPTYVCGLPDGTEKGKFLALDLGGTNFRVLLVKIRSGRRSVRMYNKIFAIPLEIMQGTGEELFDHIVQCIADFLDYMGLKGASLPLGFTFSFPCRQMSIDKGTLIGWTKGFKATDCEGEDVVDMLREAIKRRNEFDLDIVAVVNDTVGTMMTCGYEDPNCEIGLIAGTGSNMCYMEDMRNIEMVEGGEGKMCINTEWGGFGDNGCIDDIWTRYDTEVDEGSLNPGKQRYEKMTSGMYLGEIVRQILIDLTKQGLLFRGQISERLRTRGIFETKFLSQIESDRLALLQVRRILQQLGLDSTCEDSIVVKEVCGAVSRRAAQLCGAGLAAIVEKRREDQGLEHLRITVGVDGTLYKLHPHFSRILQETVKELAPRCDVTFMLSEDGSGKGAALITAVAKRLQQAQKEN
The experiment in a line: SAR analysis of small molecule inhibitors of hexokinase domain containing I (HKDC1). [Related pubchem assays (depositor defined):AID493160, AID493190]. The format is functional.

In test [4] the target is Hexokinase-1 (Homo sapiens, UniProt P19367). The experiment in a line: SAR analysis of small molecule inhibitors of hexokinase domain containing I (HKDC1) in the hexokinase 1 selectivity assay. [Related pubchem assays (depositor defined):AID493160, AID493190]. The format is functional.
Test [5] deals with T2, Sentrin-specific protease 6 (Homo sapiens, UniProt Q9GZR1).
T2 sequence (Q9GZR1 whole entry): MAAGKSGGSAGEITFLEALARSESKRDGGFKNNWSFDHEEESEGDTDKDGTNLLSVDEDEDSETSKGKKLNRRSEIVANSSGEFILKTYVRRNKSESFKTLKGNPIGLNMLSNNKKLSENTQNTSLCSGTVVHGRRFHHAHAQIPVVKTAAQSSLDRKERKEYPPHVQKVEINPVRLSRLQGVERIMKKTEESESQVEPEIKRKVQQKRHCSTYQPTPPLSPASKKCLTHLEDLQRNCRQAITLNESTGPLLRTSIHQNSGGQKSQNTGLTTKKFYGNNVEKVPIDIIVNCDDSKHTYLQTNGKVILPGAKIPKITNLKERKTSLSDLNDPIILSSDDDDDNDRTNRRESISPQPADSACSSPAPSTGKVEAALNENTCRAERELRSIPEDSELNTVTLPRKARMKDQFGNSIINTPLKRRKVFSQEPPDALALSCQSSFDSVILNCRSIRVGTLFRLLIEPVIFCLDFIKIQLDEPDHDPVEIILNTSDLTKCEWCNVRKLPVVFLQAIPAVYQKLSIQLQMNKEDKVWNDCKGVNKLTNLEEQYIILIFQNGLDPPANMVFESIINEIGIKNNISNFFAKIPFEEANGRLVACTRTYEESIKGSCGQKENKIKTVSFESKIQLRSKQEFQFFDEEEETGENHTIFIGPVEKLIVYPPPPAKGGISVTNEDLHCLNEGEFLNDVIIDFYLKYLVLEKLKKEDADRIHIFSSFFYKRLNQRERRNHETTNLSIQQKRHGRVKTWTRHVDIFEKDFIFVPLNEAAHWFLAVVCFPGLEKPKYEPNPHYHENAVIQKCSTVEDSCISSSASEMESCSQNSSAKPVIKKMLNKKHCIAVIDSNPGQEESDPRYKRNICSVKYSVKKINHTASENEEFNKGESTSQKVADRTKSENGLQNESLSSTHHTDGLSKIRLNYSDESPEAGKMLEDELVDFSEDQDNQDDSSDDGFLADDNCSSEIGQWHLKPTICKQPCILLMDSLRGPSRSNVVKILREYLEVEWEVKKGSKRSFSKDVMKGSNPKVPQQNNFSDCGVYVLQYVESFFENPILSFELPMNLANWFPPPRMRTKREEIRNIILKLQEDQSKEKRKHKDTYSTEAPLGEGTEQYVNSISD
The experiment in a line: SAR Analysis of small molecule inhibitors of Sentrin-specific protease 6 (SENP6) using a Luminescent assay. [Related pubchem assays (depositor defined):AID2582, AID2599]. The class given is functional.

The target in test [6] is T3, Sentrin-specific protease 8 (Homo sapiens, UniProt Q96LD8).
T3 sequence (Q96LD8 whole entry): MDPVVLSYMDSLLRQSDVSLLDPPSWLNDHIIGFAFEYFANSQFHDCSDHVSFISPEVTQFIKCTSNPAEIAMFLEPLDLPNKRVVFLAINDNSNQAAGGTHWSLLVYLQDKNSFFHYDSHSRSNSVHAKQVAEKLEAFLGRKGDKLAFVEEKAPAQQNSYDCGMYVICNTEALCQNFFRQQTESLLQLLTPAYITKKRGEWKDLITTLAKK
The test can be described thus: SENP8 protease inhibitors, SAR follow-up, biochemical, luminescence, set 2 (AID 588601). The class given is functional.

For test [7], the target named is T4, Sentrin-specific protease 7 (Homo sapiens, UniProt Q9BQF6).
T4 sequence (Q9BQF6 whole entry): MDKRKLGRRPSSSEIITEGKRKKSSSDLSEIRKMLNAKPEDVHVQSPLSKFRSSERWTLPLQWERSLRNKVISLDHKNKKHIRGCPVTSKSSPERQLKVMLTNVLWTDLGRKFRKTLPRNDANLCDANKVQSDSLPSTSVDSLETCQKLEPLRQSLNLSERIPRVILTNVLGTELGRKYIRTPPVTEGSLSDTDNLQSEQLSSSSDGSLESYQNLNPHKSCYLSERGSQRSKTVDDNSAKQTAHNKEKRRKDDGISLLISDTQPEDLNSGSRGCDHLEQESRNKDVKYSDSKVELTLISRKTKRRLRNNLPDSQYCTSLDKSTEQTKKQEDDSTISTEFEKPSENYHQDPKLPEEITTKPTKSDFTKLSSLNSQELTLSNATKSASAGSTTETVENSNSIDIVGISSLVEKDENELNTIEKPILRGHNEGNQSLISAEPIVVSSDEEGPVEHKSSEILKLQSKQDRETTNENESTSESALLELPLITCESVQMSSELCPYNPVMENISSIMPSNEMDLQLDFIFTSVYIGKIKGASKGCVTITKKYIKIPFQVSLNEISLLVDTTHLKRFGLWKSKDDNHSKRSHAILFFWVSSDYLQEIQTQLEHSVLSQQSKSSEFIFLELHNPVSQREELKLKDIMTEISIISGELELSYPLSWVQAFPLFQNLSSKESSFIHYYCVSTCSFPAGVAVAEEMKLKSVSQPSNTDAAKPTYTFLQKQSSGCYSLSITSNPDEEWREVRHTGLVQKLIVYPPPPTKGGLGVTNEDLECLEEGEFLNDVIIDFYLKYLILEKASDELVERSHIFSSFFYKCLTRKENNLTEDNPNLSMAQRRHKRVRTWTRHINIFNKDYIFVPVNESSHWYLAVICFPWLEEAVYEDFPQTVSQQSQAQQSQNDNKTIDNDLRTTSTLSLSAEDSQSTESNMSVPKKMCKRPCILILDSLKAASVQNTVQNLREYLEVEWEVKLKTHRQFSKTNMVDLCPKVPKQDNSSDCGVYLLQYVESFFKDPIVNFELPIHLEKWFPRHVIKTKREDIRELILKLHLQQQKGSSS
The experiment in a line: SENP7 protease inhibitors, SAR follow-up, biochemical, luminescence, set 2 (AID 588600). The format is functional.

In test [8] the target is T5, Caspase-3 (Homo sapiens, UniProt P42574).
T5 sequence (P42574 whole entry): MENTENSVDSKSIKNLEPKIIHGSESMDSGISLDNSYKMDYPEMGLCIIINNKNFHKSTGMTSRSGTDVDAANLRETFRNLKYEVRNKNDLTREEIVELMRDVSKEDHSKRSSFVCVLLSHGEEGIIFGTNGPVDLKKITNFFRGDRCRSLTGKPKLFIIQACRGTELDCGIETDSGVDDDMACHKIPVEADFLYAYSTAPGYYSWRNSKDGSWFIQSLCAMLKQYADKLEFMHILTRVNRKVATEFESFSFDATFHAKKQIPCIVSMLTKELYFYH
The test can be described thus: caspase-3 inhibitors as off-family protease, SAR follow-up, selectivity assay for SENP protease inhibitor project, biochemical, luminescence, set 2 (AID 588599). The class given is functional.

Test [9] addresses T3, Sentrin-specific protease 8. The test can be described thus: SENP8 protease inhibitors, SAR follow-up, biochemical, luminescence (AID 504501). The format is functional.
Test [10] addresses T2, Sentrin-specific protease 6. The test can be described thus: SENP6 protease inhibitors, SAR follow-up, biochemical, luminescence, set 2 (AID 588598). The class given is functional.
For test [11], the target named is T5, Caspase-3. The test can be described thus: SAR Analysis of small molecule inhibitors of Sentrin-specific proteases (SENPs) using a Caspase-3 Selectivity assay. [Related pubchem assays (depositor defined):AID2540, AID2599, AID434973, AID489001]. The format is functional.
In test [12] the target is T4, Sentrin-specific protease 7. The test can be described thus: SENP7 protease inhibitors, SAR follow-up, biochemical, luminescence (AID 504497). The class given is functional.

Hexokinase-1, sequence (P19367 whole entry, the tested form may be a part): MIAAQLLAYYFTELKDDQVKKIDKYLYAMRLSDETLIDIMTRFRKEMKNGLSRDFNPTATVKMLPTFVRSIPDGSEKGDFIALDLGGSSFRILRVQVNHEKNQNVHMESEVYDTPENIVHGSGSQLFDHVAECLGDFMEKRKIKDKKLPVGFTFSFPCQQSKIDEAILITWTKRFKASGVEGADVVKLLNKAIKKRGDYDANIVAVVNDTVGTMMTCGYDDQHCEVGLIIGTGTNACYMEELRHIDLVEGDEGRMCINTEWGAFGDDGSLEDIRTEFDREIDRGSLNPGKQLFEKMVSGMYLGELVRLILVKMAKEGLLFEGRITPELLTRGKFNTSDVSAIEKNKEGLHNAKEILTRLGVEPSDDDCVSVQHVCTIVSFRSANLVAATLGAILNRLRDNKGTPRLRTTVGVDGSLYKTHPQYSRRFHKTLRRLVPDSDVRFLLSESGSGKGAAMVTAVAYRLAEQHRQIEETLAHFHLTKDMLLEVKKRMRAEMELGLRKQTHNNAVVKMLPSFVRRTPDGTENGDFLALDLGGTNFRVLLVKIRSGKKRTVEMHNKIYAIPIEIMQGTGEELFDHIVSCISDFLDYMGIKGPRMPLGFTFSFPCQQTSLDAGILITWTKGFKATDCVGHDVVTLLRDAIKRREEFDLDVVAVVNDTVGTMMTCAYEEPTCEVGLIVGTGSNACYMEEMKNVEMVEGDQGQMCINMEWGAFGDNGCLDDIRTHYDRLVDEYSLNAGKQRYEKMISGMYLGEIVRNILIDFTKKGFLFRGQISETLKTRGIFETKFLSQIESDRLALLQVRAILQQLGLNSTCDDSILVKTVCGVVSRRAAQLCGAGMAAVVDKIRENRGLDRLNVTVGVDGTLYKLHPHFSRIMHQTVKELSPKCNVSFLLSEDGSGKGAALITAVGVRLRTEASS

As usually defined, the AC50 is the concentration giving half of the maximal activity seen. With `O=C(c1ccccc1)N1CCN(c2ccccn2)CC1`, in test [1], the AC50 was 184 µM (active).
In the case of `COc1ccc(S(=O)(=O)N(C)C[C@@H]2Oc3c(NC(=O)Nc4cccc5c4CCCC5)cccc3C(=O)N([C@@H](C)CO)C[C@H]2C)cc1`, the AC50 in test [2] is 52.3 µM (active).
One may read the IC50 as the concentration that inhibits the measured activity by half. With `O=c1c2ccccc2nc(/C=C/c2ccc(Cl)cc2)n1Cc1ccccc1`, the IC50 in [3] and in [4] was > 80 µM (inactive) each time.
For the compound `Oc1ccccc1-c1nc(/C=C/c2ccc(F)cc2)no1`, the IC50 in test [5] was 20 µM (active); in test [6], 1.64 µM (active); in [7], 1.87 µM (active); in test [8], 2.55 µM (active); in [9] it was > 99 µM (inactive); in test [10] it was 1.53 µM (active). Besides, the 50% inhibitory concentration (IC50) was 5.5 µM (active) in test [11] and 1.6 µM (active) in [12].
